The source of these data is patent US20230113037A1 (Bayer Aktiengesellschaft, priority 2019, published 2023).

Assay [1] has as its target T1, AHR (Homo sapiens, UniProt P35869).
T1 construct: U87 MG glioblastoma cells (ATCC #HTB-14) endogenously expressing AHR; endogenous in cells; host or cells: U87 MG glioblastoma cells (ATCC #HTB-14)
T1 sequence (P35869 11-848): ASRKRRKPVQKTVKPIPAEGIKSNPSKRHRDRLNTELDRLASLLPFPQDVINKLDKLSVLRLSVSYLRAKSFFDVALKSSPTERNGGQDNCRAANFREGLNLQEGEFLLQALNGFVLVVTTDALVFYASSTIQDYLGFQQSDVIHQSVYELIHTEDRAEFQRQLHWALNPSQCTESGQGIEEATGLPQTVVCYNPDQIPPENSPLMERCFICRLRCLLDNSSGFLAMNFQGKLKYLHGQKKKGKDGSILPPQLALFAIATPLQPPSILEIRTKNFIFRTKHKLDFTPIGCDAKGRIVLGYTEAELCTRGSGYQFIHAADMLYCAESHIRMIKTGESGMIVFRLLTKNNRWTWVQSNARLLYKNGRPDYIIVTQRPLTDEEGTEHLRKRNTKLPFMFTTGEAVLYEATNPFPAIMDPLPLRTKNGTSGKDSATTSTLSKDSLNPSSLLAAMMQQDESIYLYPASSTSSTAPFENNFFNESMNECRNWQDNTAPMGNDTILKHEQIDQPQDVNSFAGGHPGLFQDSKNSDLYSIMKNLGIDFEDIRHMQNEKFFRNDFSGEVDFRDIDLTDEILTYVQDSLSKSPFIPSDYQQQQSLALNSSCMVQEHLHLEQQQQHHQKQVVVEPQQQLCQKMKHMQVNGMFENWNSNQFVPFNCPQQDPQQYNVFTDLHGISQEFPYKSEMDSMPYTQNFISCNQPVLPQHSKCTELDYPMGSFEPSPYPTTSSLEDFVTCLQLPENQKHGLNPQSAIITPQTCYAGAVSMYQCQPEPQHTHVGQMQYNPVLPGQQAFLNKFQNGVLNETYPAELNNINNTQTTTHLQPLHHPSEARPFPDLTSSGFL
Briefly: In vitro assay 1: antagonism in human cell line (AHR transactivation, firefly luciferase reporter, kynurenic acid prestimulated). The class given is cell-based. The conditions noted are these: AHR Antagonism Human IC50 [M]. The method, boiled down:
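U87 MG + DRE-firefly/constitutive-Renilla stable reporters; kynurenic acid prestim; dual-luc read; Renilla = tox; normalized vs pos/neg controls (pos: 150 μM KYNA + 5 μM staurosporine).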
Background: In a reporter assay the amount or activity of a reporter protein is the signal.

For assay [2], the target named is T2, AHR (Mus musculus, UniProt P30561).
T2 sequence (P30561 1-848 P471L/N533S/M589L): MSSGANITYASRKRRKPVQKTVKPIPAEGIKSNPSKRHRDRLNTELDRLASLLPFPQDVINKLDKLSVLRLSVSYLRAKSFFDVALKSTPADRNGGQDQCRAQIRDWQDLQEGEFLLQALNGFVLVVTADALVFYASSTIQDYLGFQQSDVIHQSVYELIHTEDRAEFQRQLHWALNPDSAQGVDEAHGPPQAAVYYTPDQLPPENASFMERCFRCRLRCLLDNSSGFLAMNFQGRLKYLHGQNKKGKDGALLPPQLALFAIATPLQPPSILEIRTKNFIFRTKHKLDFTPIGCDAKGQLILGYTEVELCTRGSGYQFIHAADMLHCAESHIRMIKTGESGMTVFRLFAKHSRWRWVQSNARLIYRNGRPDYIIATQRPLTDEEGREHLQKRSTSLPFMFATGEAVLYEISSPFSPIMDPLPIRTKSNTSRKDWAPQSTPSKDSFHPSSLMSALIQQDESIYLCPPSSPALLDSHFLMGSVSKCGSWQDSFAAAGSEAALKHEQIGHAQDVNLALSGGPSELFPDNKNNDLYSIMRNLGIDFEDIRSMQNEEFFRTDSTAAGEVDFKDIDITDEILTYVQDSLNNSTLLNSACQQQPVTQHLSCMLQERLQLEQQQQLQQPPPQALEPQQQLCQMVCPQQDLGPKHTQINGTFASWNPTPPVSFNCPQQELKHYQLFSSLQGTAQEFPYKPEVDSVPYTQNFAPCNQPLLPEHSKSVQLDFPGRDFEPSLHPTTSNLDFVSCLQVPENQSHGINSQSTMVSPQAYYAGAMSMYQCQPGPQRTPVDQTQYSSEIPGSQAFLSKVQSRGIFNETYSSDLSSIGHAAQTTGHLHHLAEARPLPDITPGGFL
Briefly: In vitro assay 3: antagonism in mouse cell line (AHR transactivation, firefly luciferase reporter, kynurenic acid prestimulated). It counts as cell-based. The method, boiled down: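 Mouse cells stably carrying a DRE-driven, AHR-inducible firefly luciferase reporter were prestimulated with the endogenous agonist kynurenic acid before compound addition. Luciferase activity was measured by luminescence and normalized to positive and negative controls, with cells lacking kynurenic acid serving as full-inhibition control. Repeat tests are reported as mean or median.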

[3] abbreviates: Hepa 1c1c7 cells, 200 μM kynurenic acid, 20 hours, firefly luciferase reporter, read-out: AHR Antagonism Mouse IC50.
Setting [4] is: mouse Hepa 1c1c7 cells, 200 μM kynurenic acid, 20 hours, read-out: AHR Antagonism Mouse IC50.

Like-named read-outs stand apart in the source and are kept apart here.

Usually IC50 stands for the point on the concentration scale where inhibition reaches its midpoint.

For the molecule `CCCCC(Nc1nc2ccccc2c2nc(-c3cccc(OC(F)(F)F)c3)nn12)C(N)=O` (single isomer, unassigned) [Example 324, N^2-{2-[3-(trifluoromethoxy)phenyl][1,2,4]triazolo[1,5-c]quinazolin-5-yl}-norleucinamide], the IC50 was found to be 2.02e-08 M against AHR [1] and 16.4 nM on AHR [2] (read-out: AHR Antagonism Mouse IC50, mouse Hepa 1c1c7 cells, 200 μM kynurenic acid, 20 hours).
For `O=C1NCCNC[C@H]1Nc1nc2c(Br)cccc2c2nc(-c3cn[nH]c3)nn12` [Example 976, (6R)-6-{[7-bromo-2-(1H-pyrazol-4-yl)[1,2,4]triazolo[1,5-c]quinazolin-5-yl]amino}-1,4-diazepan-5-one], the IC50 against AHR [1] (firefly luciferase reporter) is 3.11e-06 M; on AHR [2] (setting [3]), 4640 nM.
With `CC(C)Oc1ccc(-c2nc3c4ccccc4nc(N[C@@H]4CCCCNC4=O)n3n2)cc1F` [Example 632, (3R)-3-[(2-{3-fluoro-4-[(propan-2-yl)oxy]phenyl}[1,2,4]triazolo[1,5-c]quinazolin-5-yl)amino]azepan-2-one], the results for the IC50 against AHR [1] and at AHR [2] (setting [4]) were 1.29e-09 M and 0.784 nM, respectively.
In the case of `COc1cccc2c1nc(N[C@@H]1CCCCNC1=O)n1nc(-c3cnn(C)c3)nc21` [Example 752, (3R)-3-{[7-methoxy-2-(1-methyl-1H-pyrazol-4-yl)[1,2,4]triazolo[1,5-c]quinazolin-5-yl]amino}azepan-2-one], the IC50 worked out at 2.29e-07 M against AHR [1] and 953 nM at AHR [2] (setting [4]).
For `CCCNC(=O)[C@@H](C)Nc1nc2ccccc2c2nc(-c3cc(F)ccc3OC(F)(F)F)nn12` [Example 495, N^2-{2-[5-fluoro-2-(trifluoromethoxy)phenyl][1,2,4]triazolo[1,5-c]quinazolin-5-yl}-N-propyl-D-alaninamide], in that order: 7.03e-08 M and 13.2 nM.
`O=C1NCCCC[C@H]1Nc1nc2c(C(F)(F)F)cccc2c2nc(-c3ccc(Cl)cc3)nn12` [Example 833, (3R)-3-{[2-(4-chlorophenyl)-7-(trifluoromethyl)[1,2,4]triazolo[1,5-c]quinazolin-5-yl]amino}azepan-2-one]: the IC50 came to 1.12e-09 M at AHR [1] (firefly luciferase reporter) and 1.27 nM at AHR [2] (setting [3]).
`CC[C@@H](Nc1nc2ccccc2c2nc(-c3cscc3OC)nn12)C(N)=O` [Example 338, (2R)-2-{[2-(4-methoxythiophen-3-yl)[1,2,4]triazolo[1,5-c]quinazolin-5-yl]amino}butanamide]: the IC50 was 1.91e-07 M on AHR [1] and 53.9 nM at AHR [2] (setting [4]).
For `O=C1NCCCC[C@H]1Nc1nc2c(C(F)(F)F)cccc2c2nc(-c3cnn(C4CC4)c3)nn12` [Example 676, (3R)-3-{[2-(1-cyclopropyl-1H-pyrazol-4-yl)-7-(trifluoromethyl)[1,2,4]triazolo[1,5-c]quinazolin-5-yl]amino}azepan-2-one], in that order: 6.18e-10 M and 1.97 nM.
The matching figures for `COc1ccc(-c2nc3c4ccc(F)cc4nc(N[C@@H]4CCCCNC4=O)n3n2)cc1` [Example 153, (3R)-3-{[8-fluoro-2-(4-methoxyphenyl)[1,2,4]triazolo[1,5-c]quinazolin-5-yl]amino}azepan-2-one]: 4.35e-10 M and 1.18 nM.
For `CCC[C@@H](Nc1nc2ccccc2c2nc(-c3cccc(OC(F)(F)F)c3)nn12)C(=O)NC` [Example 316, N-methyl-N^2-{2-[3-(trifluoromethoxy)phenyl][1,2,4]triazolo[1,5-c]quinazolin-5-yl}-D-norvalinamide], in that order: 2.07e-08 M and 3.76 nM.
As for `CN(C)CCn1cc(-c2nc3c4ccccc4nc(N[C@@H]4CCCCNC4=O)n3n2)cn1` [Example 599, (3R)-3-[(2-{1-[2-(dimethylamino)ethyl]-1H-pyrazol-4-yl}[1,2,4]triazolo[1,5-c]quinazolin-5-yl)amino]azepan-2-one], the figures for the IC50 on AHR [1] and on AHR [2] (setting [4]) were 5.81e-07 M and 2120 nM, respectively.
With `N#Cc1cccc2c1nc(N[C@@H]1CNCCNC1=O)n1nc(-c3cnn(C(F)F)c3)nc21` [Example 934, 2-[1-(difluoromethyl)-1H-pyrazol-4-yl]-5-{[(6R)-5-oxo-1,4-diazepan-6-yl]amino}[1,2,4]triazolo[1,5-c]quinazoline-7-carbonitrile], the IC50 on AHR [1] (firefly luciferase reporter) was 2.39e-07 M; on AHR [2] (read-out: AHR Antagonism Mouse IC50, Hepa 1c1c7 cells, 200 μM kynurenic acid, 20 hours, firefly luciferase reporter), 116 nM.
In the case of `CCCCNC(=O)[C@H](C)Nc1nc2ccccc2c2nc(-c3cccc(C#N)c3)nn12` [Example 441, N-butyl-N^2-[2-(3-cyanophenyl)[1,2,4]triazolo[1,5-c]quinazolin-5-yl]alaninamide], the IC50 at AHR [1] is 1.36e-07 M; at AHR [2] (setting [4]), 29.3 nM.
`CN1CC[C@@H](Nc2nc3ccccc3c3nc(-c4cccc(OC(F)(F)F)c4)nn23)C1=O` [Example 312, (3R)-1-methyl-3-({2-[3-(trifluoromethoxy)phenyl][1,2,4]triazolo[1,5-c]quinazolin-5-yl}amino)pyrrolidin-2-one]: the IC50 on AHR [1] stood at 7.19e-08 M; on AHR [2] (setting [4]) it was 22 nM.
For `COc1cccc(-c2nc3c4c(C)cccc4nc(N[C@@H]4CCCCNC4=O)n3n2)c1` [Example 178, (3R)-3-{[2-(3-methoxyphenyl)-10-methyl[1,2,4]triazolo[1,5-c]quinazolin-5-yl]amino}azepan-2-one], in that order: 3.98e-09 M and 2.34 nM.
As for `COc1ccc(-c2nc3c4cccc(S(C)(=O)=O)c4nc(N[C@@H]4CNCCNC4=O)n3n2)cc1` [Example 936, (6R)-6-{[7-(methanesulfonyl)-2-(4-methoxyphenyl)[1,2,4]triazolo[1,5-c]quinazolin-5-yl]amino}-1,4-diazepan-5-one], the IC50 at AHR [1] (firefly luciferase reporter) turned out to be 1.27e-08 M; at AHR [2] (setting [3]) it was 66.9 nM.
In the case of `O=C1NCCCC[C@H]1Nc1nc2c(Br)cccc2c2nc(-c3ccncc3)nn12` [Example 216, (3R)-3-{[7-bromo-2-(pyridin-4-yl)[1,2,4]triazolo[1,5-c]quinazolin-5-yl]amino}azepan-2-one], the IC50 stood at 3.35e-09 M against AHR [1] and 12.1 nM at AHR [2] (setting [4]).
For `COCCn1cc(-c2nc3c4ccccc4nc(N[C@@H]4CCCCNC4=O)n3n2)cn1` [Example 432, (3R)-3-({2-[1-(2-methoxyethyl)-1H-pyrazol-4-yl][1,2,4]triazolo[1,5-c]quinazolin-5-yl}amino)azepan-2-one], in that order: 6.11e-08 M and 18.1 nM.
For `CC[C@H](Nc1nc2ccccc2c2nc(-c3ccc(Br)cc3OC(F)(F)F)nn12)C(N)=O` [Example 524, (2S)-2-({2-[4-bromo-2-(trifluoromethoxy)phenyl][1,2,4]triazolo[1,5-c]quinazolin-5-yl}amino)butanamide], in that order: 1.3e-07 M and 17.7 nM.
As to `O=C1NCCNC[C@H]1Nc1nc2c(Br)cccc2c2nc(-c3ccccc3OC(F)(F)F)nn12` [Example 266, (6R)-6-({7-bromo-2-[2-(trifluoromethoxy)phenyl][1,2,4]triazolo[1,5-c]quinazolin-5-yl}amino)-1,4-diazepan-5-one], the results for the IC50 against AHR [1] and at AHR [2] (setting [4]) were 3.29e-09 M and 2.17 nM, respectively.
